Data taken from PMC12232896 (Angewandte Chemie (International Ed. in English), 2025).

How the values were obtained:
PvPI4Kβ = PvPI4Kβ (Plasmodium vivax, UniProt A5KB26); design: method as in PMID 33590753, PMID 28446690, PMID 30249687; details: same assay; cited from earlier work
Pf3D7 strain = details: cited from earlier work
P. berghei = test system: P. berghei; design: method as in earlier work; details: 4 × 30 mg/kg; cited from earlier work
HsMAP4K4 = target: T1, HsMAP4K4 (Homo sapiens, UniProt O95819); test: HsMAP4K4 ADP-Glo kinase assay; format: biochemical; details: reference compound, 10 µM ATP
T1 construct: purchased Reaction Biology

HsMINK1 = target: T2, HsMINK1 (Homo sapiens, UniProt Q8N4C8); test: HsMINK1 ADP-Glo kinase assay; format: biochemical; details: reference compound, 10 µM ATP
T2 construct: purchased Reaction Biology
T2 sequence (Q8N4C8 whole entry): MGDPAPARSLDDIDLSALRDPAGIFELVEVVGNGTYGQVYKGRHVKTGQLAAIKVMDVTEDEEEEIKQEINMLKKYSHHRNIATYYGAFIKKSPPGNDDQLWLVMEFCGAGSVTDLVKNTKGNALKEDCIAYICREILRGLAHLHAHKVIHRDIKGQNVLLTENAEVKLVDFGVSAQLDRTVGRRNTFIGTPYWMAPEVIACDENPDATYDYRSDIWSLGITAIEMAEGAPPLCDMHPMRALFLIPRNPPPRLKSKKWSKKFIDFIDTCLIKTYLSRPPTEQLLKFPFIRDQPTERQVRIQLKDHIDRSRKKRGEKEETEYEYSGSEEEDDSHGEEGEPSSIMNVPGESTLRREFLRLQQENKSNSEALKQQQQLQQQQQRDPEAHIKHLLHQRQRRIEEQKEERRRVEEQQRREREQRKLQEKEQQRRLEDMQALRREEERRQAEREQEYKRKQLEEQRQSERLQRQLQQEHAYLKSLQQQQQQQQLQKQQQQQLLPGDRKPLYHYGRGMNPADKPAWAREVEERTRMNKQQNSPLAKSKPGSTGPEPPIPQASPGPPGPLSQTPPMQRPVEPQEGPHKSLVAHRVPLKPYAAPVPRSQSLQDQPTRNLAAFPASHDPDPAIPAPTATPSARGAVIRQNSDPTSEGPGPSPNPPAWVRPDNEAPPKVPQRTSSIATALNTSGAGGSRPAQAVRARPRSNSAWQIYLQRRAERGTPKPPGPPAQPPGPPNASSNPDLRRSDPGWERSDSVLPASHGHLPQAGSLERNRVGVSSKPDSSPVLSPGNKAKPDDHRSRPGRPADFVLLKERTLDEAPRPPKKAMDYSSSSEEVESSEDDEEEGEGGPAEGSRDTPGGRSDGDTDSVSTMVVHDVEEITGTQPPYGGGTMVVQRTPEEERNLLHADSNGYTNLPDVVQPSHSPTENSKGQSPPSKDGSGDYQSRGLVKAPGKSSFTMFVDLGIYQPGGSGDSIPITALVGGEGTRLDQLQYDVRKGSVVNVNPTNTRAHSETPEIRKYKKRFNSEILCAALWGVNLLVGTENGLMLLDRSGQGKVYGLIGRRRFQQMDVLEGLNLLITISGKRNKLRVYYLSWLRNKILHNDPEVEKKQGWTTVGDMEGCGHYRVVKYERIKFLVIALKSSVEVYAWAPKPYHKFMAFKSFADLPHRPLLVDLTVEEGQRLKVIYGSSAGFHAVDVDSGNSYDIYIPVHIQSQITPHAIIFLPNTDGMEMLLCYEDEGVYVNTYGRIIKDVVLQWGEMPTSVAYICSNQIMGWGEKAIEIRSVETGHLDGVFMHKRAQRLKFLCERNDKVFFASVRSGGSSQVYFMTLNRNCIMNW

Chain of PvPI4Kβ (A5KB26 entry or part of it): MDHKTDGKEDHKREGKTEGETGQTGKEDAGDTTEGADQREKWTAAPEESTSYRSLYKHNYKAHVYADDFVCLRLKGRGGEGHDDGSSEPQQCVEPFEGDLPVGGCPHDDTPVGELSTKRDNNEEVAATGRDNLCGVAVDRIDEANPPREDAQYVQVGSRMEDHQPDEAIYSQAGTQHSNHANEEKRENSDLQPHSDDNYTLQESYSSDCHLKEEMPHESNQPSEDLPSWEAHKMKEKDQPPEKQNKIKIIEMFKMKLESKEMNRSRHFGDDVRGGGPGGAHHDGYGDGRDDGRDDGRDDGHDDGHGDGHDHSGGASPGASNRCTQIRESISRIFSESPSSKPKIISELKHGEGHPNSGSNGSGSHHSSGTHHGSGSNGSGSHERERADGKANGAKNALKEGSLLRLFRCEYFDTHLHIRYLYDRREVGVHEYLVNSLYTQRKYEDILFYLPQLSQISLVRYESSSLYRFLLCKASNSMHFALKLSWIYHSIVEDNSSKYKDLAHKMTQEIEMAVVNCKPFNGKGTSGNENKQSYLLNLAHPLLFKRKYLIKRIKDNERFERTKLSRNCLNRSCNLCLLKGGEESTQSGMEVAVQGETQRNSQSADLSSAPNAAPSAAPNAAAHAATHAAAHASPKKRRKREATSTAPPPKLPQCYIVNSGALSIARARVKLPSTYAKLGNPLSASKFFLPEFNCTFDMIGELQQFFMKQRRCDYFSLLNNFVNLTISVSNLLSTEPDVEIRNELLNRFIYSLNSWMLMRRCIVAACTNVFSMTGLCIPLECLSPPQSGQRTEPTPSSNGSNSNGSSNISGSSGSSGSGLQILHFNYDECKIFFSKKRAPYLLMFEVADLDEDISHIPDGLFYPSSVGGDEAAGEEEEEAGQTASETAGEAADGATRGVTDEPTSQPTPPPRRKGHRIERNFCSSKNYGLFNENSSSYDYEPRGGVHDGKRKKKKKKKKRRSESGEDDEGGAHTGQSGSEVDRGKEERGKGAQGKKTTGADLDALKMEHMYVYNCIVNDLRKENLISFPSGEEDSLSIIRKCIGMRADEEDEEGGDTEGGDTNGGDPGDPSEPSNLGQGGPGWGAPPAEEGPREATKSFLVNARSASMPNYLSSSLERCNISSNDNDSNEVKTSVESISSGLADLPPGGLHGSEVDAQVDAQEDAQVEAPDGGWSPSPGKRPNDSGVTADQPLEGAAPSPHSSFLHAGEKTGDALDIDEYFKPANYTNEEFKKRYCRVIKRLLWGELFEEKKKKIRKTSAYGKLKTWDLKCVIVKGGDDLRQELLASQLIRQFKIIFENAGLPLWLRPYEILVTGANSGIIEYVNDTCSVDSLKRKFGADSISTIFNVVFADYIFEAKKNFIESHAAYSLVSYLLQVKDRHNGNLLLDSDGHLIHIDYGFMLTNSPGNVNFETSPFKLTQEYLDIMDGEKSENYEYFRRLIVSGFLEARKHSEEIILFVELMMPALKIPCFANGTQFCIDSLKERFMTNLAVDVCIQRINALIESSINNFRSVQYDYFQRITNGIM
T1 sequence (O95819 whole entry): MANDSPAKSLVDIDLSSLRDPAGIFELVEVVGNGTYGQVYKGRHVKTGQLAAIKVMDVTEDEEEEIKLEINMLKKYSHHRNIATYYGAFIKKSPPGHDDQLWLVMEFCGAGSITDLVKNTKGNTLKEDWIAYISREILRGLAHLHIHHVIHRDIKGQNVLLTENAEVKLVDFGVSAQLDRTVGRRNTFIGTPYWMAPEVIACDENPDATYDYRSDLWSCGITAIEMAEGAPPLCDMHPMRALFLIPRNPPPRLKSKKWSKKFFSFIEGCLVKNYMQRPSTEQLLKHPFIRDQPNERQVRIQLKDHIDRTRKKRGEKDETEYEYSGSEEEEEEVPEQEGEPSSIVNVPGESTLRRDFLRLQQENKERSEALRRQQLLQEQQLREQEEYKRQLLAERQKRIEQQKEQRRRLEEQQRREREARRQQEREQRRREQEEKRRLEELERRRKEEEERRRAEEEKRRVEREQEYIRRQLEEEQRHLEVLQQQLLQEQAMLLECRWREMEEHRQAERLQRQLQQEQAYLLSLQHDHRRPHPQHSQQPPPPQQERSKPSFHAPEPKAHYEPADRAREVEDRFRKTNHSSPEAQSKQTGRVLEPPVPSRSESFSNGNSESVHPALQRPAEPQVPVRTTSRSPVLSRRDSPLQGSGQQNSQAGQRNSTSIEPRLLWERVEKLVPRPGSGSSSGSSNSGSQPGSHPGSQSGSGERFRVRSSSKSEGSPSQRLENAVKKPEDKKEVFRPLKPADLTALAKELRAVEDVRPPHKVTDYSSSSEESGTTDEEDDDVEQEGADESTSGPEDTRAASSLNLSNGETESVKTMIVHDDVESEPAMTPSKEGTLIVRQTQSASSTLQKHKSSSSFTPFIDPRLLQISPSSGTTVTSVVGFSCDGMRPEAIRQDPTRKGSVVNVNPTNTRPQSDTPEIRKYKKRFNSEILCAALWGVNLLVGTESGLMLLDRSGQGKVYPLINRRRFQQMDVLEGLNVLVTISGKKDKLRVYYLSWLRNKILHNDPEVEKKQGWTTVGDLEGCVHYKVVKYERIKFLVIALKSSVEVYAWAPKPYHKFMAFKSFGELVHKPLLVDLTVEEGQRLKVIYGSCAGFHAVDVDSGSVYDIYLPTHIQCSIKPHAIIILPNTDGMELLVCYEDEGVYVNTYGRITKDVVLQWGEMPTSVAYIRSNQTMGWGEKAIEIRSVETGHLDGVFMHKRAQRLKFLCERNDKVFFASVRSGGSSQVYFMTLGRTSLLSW

Row | SMILES | IC50 (PvPI4Kβ) [nM] | reduction in parasitaemia (P. berghei) [%] | other results
1 | Nc1ncc(-c2ccc(C(=O)N3CCNCC3)cc2)nc1-c1ccc(C(F)(F)F)cc1 [UCT943] | < 5 |  | logPRR (Pf3D7 strain): 2.5
2 | C[C@H]1[C@H](OC(=O)CCC(=O)O)O[C@@H]2O[C@@]3(C)CC[C@H]4[C@H](C)CC[C@@H]1[C@@]24OO3 [artesunate] |  | 99 | 
3 | CCN(CC)CCCC(C)Nc1ccnc2cc(Cl)ccc12 (stereo not shown) [chloroquine] |  | 99.9 | 
4 | CC(C)n1nc(-c2ccc3oc(N)nc3c2)c2c(N)ncnc21 [sapanisertib] | < 5 |  | 
5 | CN[C@@H]1C[C@H]2O[C@@](C)([C@@H]1OC)n1c3ccccc3c3c4c(c5c6ccccc6n2c5c31)C(=O)NC4 [staurosporine] |  |  | inhibition HsMAP4K4 (HsMAP4K4): nanomolar inhibition; inhibition HsMINK1 (HsMINK1): nanomolar inhibition
